Laboratory results reported in patent publication US4474806A, “Sulfonyl or carbonyl inositol derivatives useful as anti-inflammatory/analgesic agents” (Merck & Co., Inc., priority 1982, dated 1984).

Tests used:
[1] = tested on: Phosphatidyl inositol-specific phospholipase C; test: Phosphatidyl inositol-specific phospholipase C assay with sonicated human platelets, release of water-soluble 3H-inositol counts; assay type: biochemical; conditions: 250 μm PI, 10 minutes
Procedure: This invention also relates to a method of treating inflammation in patients using a compound of Formula (I) as the active constituent.
A. Protocol - Phosphatidyl inositol-specific
phospholipase C assays. The assays were performed as
follows: A mixture of PI (Sigma) and
(^3 H--inositol)-PI in CHCl3 are blown to dryness
under N2 and sonicated into a buffer containing DOC
and CaCl2 so that the final concentrations in each
0.5 mg/ml DOC containing an appropriate amount of
in 50 mM Hepes, 100 mM NaCl, 0.5 mg/ml BSA pH 7.
An aliquot of sonicated human platelets,
5 × 10^9 /ml, is added; the reaction is stopped after
10 minutes with a chloroform/methanol/H2 O solution
and the upper water phase is counted to detect
water-soluble inositol counts. The pH was checked
during each assay using pH paper to verify that none
of the compounds affected this parameter.

phospholipase C = conditions: background statement, no concentration given; cited from earlier work

SMILES: CCCCCCCCCCCCCCCC(=O)OC1C(O)C(O)C(O)C(O)C1O (stereo not shown) [myo-inositol-5 (or 6)-palmitate]
- % Inhibition (specific phospholipase C inhibition) ([1]; Conc. 0.122 mM): 7%
- % Inhibition (specific phospholipase C inhibition) ([1]; Conc. 1.22 mM): 55%

SMILES: CCCCCCCCCCCCNC(=O)OC1C(O)C(O)C(O)C(O)C1O (stereo not shown) [myo-inositol-6 (or 5)-dodecanecarbamate]
- % Inhibition (specific phospholipase C inhibition) ([1]; Conc. 0.8 mM): 16%

SMILES: c1ccc2c(c1)Nc1ccccc1S2 [phenothiazine]
- inhibition of phospholipase C (phospholipase C): inhibited
